Test [1] has as its system ADR5000 cell line. Briefly: Antiproliferative activity against human CEM/ADR5000 cells assessed as reduction in cell viability incubated for 48 hrs by MTT assay. Format: functional, cell-based. Conditions: ADR5000, 48 h. Background: Formazan colour is commonly taken as a measure of viable cells.
The test system of test [2] is ADR5000 cell line. As to the kind of experiment: Induction of apoptosis in human CEM/ADR5000 cells in presence of EGCG at 20 uM. Format: functional, cell-based.
In test [3] the test system is BEL-7404 tumor cell line. Briefly: Antiproliferative activity against human BEL-7404 tumor cell line assessed as inhibition of cell proliferation incubated for 72 hrs by MTT assay. Format: functional, cell-based. Conditions: BEL-7404, 72 h.
The test system of test [4] is BEL-7404 tumor cell line. As to the kind of experiment: Induction of apoptosis in human BEL-7404 tumor cell line in presence of EGCG at 30.5 uM. The class given is functional, cell-based.
Test [5] concerns DLD-1. As to the kind of experiment: Induction of apoptosis in human DLD-1 cells in presence of EGCG at 50 uM. The class given is functional, cell-based.
Test [6] has as its system DLD-1. As to the kind of experiment: Antiproliferative activity against human DLD-1 cells assessed as reduction in cell growth incubated for 24 hrs by MTT assay. Format: functional, cell-based. To be noted: DLD-1, 24 h.
Another test concerns MCF7. Briefly: Induction of apoptosis in human MCF7 cells in presence of EGCG at 50 uM.

In general, IC50 refers to the concentration that gives 50% inhibition. In the case of `COc1cccc2c1C(=O)c1c(O)c3c(c(O)c1C2=O)C[C@@](O)(C(=O)CO)C[C@@H]3O[C@H]1C[C@H](N)[C@H](O)[C@H](C)O1` [DOXORUBICIN], the IC50 in the test with ADR5000 cell line [1] came to 88.9 µM; with ADR5000 cell line [2] it was 29.9 µM; in the test with BEL-7404 tumor cell line [3], 1.62 µM; in the test with BEL-7404 tumor cell line [4], 3.28 µM.

Turning to `O=c1[nH]cc(F)c(=O)[nH]1` [FLUOROURACIL], the figures for the IC50 with DLD-1 [5] and in the test on DLD-1 [6] were 11 µM and 150 µM, respectively.

In the case of `CC/C(=C(\c1ccccc1)c1ccc(OCCN(C)C)cc1)c1ccccc1` [TAMOXIFEN], in the test with MCF7, the IC50 is 5.8 µM.

The values above are taken from ChEMBL document CHEMBL5335772, “EGCG adjuvant chemotherapy: Current status and future perspectives” (Eur J Med Chem, 2023).
